Results: patent US10703733B2, “MCL-1 inhibitors” (Gilead Sciences, Inc., priority 2018, dated 2020)
Where two headings read alike, the source gives them in different places.

How the values were obtained:
[1] = molecular target: MCL-1/Bim interaction (recombinant human MCL-1 protein, residues 171-327; biotinylated human Bim peptide, residues 51-76) (Homo sapiens (Human), UniProt Q07820); assay: MCL-1/Bim Binding AlphaLISA Assay; conditions: 0.0625 nM 6xHis-Mcl-1 (171-327), 0.0625 nM biotinylated-Bim peptide
Sequence of MCL-1/Bim interaction (recombinant human MCL-1 protein, residues 171-327; biotinylated human Bim peptide, residues 51-76) (Q07820 171-327): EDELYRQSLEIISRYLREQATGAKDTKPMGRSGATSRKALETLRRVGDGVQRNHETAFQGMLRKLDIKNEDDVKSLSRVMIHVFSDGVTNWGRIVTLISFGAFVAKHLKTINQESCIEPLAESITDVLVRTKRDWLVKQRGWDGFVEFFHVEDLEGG
In short: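 AlphaLISA with 0.0625 nM His-tagged MCL-1 (171-327) and 0.0625 nM biotinylated Bim (51-76) in 20 mM Hepes pH 7.5, 150 mM NaCl, 0.002% Brij 35, 1 mM DTT, 0.01% BSA. Compound preincubated 1 h with MCL-1, then Bim 2 h, acceptor beads 1 h, donor beads 1 h; percent inhibition against DMSO and no-protein/no-peptide controls.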

[2] = system: SKBR3 cells; assay: SKBR3 Cell Viability Assay (CellTiter Glo); format: cell-based; conditions: CellTiter Glo luminescence, read-out: MCL-1 CV SKBR3 EC50
Procedure: SKBR3 Cell Viability Assay Materials
SKBR3 Cells (ATCC HTB-30) were obtained from ATCC (Manassas, Va.) and cultured in McCoy 5A's medium (ATCC 30-2007)+10% fetal bovine serum (SH30071.03, HyClone, Pittsburgh, Pa.) plus 1× Penicillin-Streptomycin L-glutamine (Corning 30-009-C1, Corning, N.Y.)).
The cell viability assay was conducted in a 384-well tissue culture plate (Grenier 781086, Monroe, N.C.) in a total volume of 70 μL. Test compounds were prepared in 1,000×, serially diluted, and pre-spotted into 384-well tissue culture plate by Echo 555 Liquid Handler (Labcyte Inc., San Jose, Calif.). Seventy μl of 6,000 SKBR3 cells were dispensed into each well of the plate and incubated at 37° C. with 5% CO2 for 72 hours. At the end of incubation, 2× CellTiter Glo (CTG) reagents (1 part buffer with 2 parts substrate) (Promega, Madison, Wis.) were prepared, and the plate and the reagent were equilibrated to room temperature for 30 minutes. CTG reagent was added to each plate by Biomek FX at 20 μL/well with 5 times pipetting and mixing to induce cell lysis. Luminescence was read by Envision multimode reader (PerkinElmer). […] Percent inhibition was calculated as followed: % Inhibition=100%*(Well−Neg)/(Pos−Neg) Neg, negative control, DMSO Pos, positive control, 10 μM Puromycin

CO[C@H]1/C=C/CCC[S@@](=O)(NC(=O)CCc2ncccn2)=NC(=O)c2ccc3c(c2)N(C[C@@H]2CC[C@H]21)C[C@@]1(CCCc2cc(Cl)ccc21)CO3 [Example 44]
IC50 [1]: 0.1 nM | EC50 ([2]; Homo sapiens, SK-BR-3, 72 h): 376 nM

CCn1nccc1CCC(=O)N[S@@]1(=O)=NC(=O)c2ccc3c(c2)N(C[C@@H]2CC[C@H]2[C@@H](OC)/C=C/CCC1)C[C@@]1(CCCc2cc(Cl)ccc21)CO3 [Example 45]
IC50 [1]: 0.1 nM | EC50 ([2]; Homo sapiens, SK-BR-3, 72 h): 191 nM

CO[C@H]1/C=C/CCC[S@@](=O)(NC(=O)CCc2cnn(C)n2)=NC(=O)c2ccc3c(c2)N(C[C@@H]2CC[C@H]21)C[C@@]1(CCCc2cc(Cl)ccc21)CO3 [Example 46]
IC50 [1]: 0.1 nM | EC50 ([2]; Homo sapiens, SK-BR-3, 72 h): 512 nM

CO[C@H]1/C=C/CCC[S@@](=O)(NC(=O)CCc2ccccn2)=NC(=O)c2ccc3c(c2)N(C[C@@H]2CC[C@H]21)C[C@@]1(CCCc2cc(Cl)ccc21)CO3 [Example 47]
IC50 [1]: 0.1 nM | EC50 ([2]; Homo sapiens, SK-BR-3, 72 h): 758 nM

CO[C@H]1/C=C/C[C@H](C)[C@@H](C)[S@@](=O)(NC(=O)CCc2ccnn2C)=NC(=O)c2ccc3c(c2)N(C[C@@H]2CC[C@H]21)C[C@@]1(CCCc2cc(Cl)ccc21)CO3 [Example 49]
IC50 [1]: 0.1 nM | EC50 ([2]; 72 hours): 207 nM

CO[C@H]1/C=C/CCC[S@@](=O)(NC(=O)CCn2ncc3ccccc32)=NC(=O)c2ccc3c(c2)N(C[C@@H]2CC[C@H]21)C[C@@]1(CCCc2cc(Cl)ccc21)CO3 [Example 52]
IC50 [1]: 0.9 nM | EC50 ([2]; Homo sapiens, SK-BR-3, 72 h): 1950 nM

CO[C@H]1/C=C/CCC[S@@](=O)(NC(=O)CCc2cncnc2)=NC(=O)c2ccc3c(c2)N(C[C@@H]2CC[C@H]21)C[C@@]1(CCCc2cc(Cl)ccc21)CO3 [Example 53]
IC50 [1]: 0.2 nM | EC50 ([2]; Homo sapiens, SK-BR-3, 72 h): 388 nM

CO[C@H]1/C=C/CCC[S@@](=O)(NC(=O)CCn2cc(Cl)cn2)=NC(=O)c2ccc3c(c2)N(C[C@@H]2CC[C@H]21)C[C@@]1(CCCc2cc(Cl)ccc21)CO3 [Example 55]
IC50 [1]: 0.2 nM | EC50 ([2]; Homo sapiens, SK-BR-3, 72 h): 685 nM

CO[C@H]1/C=C/CCC[S@@](=O)(NC(=O)CCn2nccc2C)=NC(=O)c2ccc3c(c2)N(C[C@@H]2CC[C@H]21)C[C@@]1(CCCc2cc(Cl)ccc21)CO3 [Example 56]
IC50 [1]: 0.6 nM | EC50 ([2]; Homo sapiens, SK-BR-3, 72 h): 1180 nM

CO[C@H]1/C=C/CCC[S@@](=O)(NC(=O)CCc2cnoc2)=NC(=O)c2ccc3c(c2)N(C[C@@H]2CC[C@H]21)C[C@@]1(CCCc2cc(Cl)ccc21)CO3 [Example 57]
IC50 [1]: 0.2 nM | EC50 ([2]; Homo sapiens, SK-BR-3, 72 h): 596 nM

CO[C@H]1/C=C/CCC[S@@](=O)(NC(=O)CCc2ccon2)=NC(=O)c2ccc3c(c2)N(C[C@@H]2CC[C@H]21)C[C@@]1(CCCc2cc(Cl)ccc21)CO3 [Example 58]
IC50 [1]: 0.2 nM | EC50 ([2]; Homo sapiens, SK-BR-3, 72 h): 664 nM

CO[C@H]1/C=C/CCC[S@@](=O)(NC(=O)CCn2ccc(C)n2)=NC(=O)c2ccc3c(c2)N(C[C@@H]2CC[C@H]21)C[C@@]1(CCCc2cc(Cl)ccc21)CO3 [Example 59]
IC50 [1]: 0.1 nM | EC50 ([2]; Homo sapiens, SK-BR-3, 72 h): 874 nM

CO[C@H]1/C=C/CCC[S@@](=O)(NC(=O)CCc2nnc(C)o2)=NC(=O)c2ccc3c(c2)N(C[C@@H]2CC[C@H]21)C[C@@]1(CCCc2cc(Cl)ccc21)CO3 [Example 60]
IC50 [1]: 0.2 nM | EC50 ([2]; Homo sapiens, SK-BR-3, 72 h): 1090 nM

CO[C@H]1/C=C/CCC[S@@](=O)(NC(=O)CCn2cc(C)cn2)=NC(=O)c2ccc3c(c2)N(C[C@@H]2CC[C@H]21)C[C@@]1(CCCc2cc(Cl)ccc21)CO3 [Example 61]
IC50 [1]: 0.1 nM | EC50 ([2]; Homo sapiens, SK-BR-3, 72 h): 775 nM

CCC(=O)N[S@]1(=O)=NC(=O)c2ccc3c(c2)N(C[C@@H]2CC[C@H]2[C@@H](OC)/C=C/CC[C@H]1CC)C[C@@]1(CCCc2cc(Cl)ccc21)CO3 [Example 64]
IC50 [1]: 5.2 nM | EC50 ([2]; 72 hours): 5830 nM

CCC(=O)N[S@]1(=O)=NC(=O)c2ccc3c(c2)N(C[C@@H]2CC[C@H]2[C@@H](OCCN2CCOCC2)/C=C/CCC1)C[C@@]1(CCCc2cc(Cl)ccc21)CO3 [Example 66]
IC50 [1]: 2.7 nM | EC50 ([2]; 72 hours): 5830 nM

CCC(=O)N[S@@]1(=O)=NC(=O)c2ccc3c(c2)N(C[C@@H]2CC[C@H]2[C@@H](OCCN2CCN(C)CC2)/C=C/CCC1)C[C@@]1(CCCc2cc(Cl)ccc21)CO3 [Example 68]
IC50 [1]: 46.9 nM | EC50 ([2]; Homo sapiens, SK-BR-3, 72 h): 6300 nM

CC[C@@H]1CC/C=C/[C@H](OC)[C@@H]2CC[C@H]2CN2C[C@@]3(CCCc4cc(Cl)ccc43)COc3ccc(cc32)C(=O)N=[S@@]1(=O)NC(=O)CCc1ccnn1C [Example 70]
IC50 [1]: 0.2 nM | EC50 ([2]; 72 hours): 374 nM

CO[C@H]1/C=C/CCC[S@@](=O)(NC(=O)C[C@H](O)c2ccccc2)=NC(=O)c2ccc3c(c2)N(C[C@@H]2CC[C@H]21)C[C@@]1(CCCc2cc(Cl)ccc21)CO3 [Example 72]
IC50 [1]: 0.1 nM | EC50 ([2]; Homo sapiens, SK-BR-3, 72 h): 262 nM

CO[C@H]1/C=C/CCC[S@@](=O)(NC(=O)N2CCS(=O)(=O)CC2)=NC(=O)c2ccc3c(c2)N(C[C@@H]2CC[C@H]21)C[C@@]1(CCCc2cc(Cl)ccc21)CO3 [Example 73]
IC50 [1]: 0.3 nM | EC50 ([2]; Homo sapiens, SK-BR-3, 72 h): 2450 nM

CO[C@H]1/C=C/CCC[S@](=O)(NC(=O)N2CCS(=O)(=O)CC2)=NC(=O)c2ccc3c(c2)N(C[C@@H]2CC[C@H]21)C[C@@]1(CCCc2cc(Cl)ccc21)CO3 [Example 74]
IC50 [1]: 7.3 nM | EC50 ([2]; Homo sapiens, SK-BR-3, 72 h): 10000 nM

CO[C@H]1/C=C/CCC[S@@](=O)(NC(=O)NCc2ccnn2C)=NC(=O)c2ccc3c(c2)N(C[C@@H]2CC[C@H]21)C[C@@]1(CCCc2cc(Cl)ccc21)CO3 [Example 75]
IC50 [1]: 0.3 nM | EC50 ([2]; Homo sapiens, SK-BR-3, 72 h): 692 nM

CCN(C)C(=O)N[S@]1(=O)=NC(=O)c2ccc3c(c2)N(C[C@@H]2CC[C@H]2[C@@H](OC)/C=C/CCC1)C[C@@]1(CCCc2cc(Cl)ccc21)CO3 [Example 76]
IC50 [1]: 10.5 nM | EC50 ([2]; Homo sapiens, SK-BR-3, 72 h): 6330 nM

CCN(C)C(=O)N[S@@]1(=O)=NC(=O)c2ccc3c(c2)N(C[C@@H]2CC[C@H]2[C@@H](OC)/C=C/CCC1)C[C@@]1(CCCc2cc(Cl)ccc21)CO3 [Example 77]
IC50 [1]: 5.3 nM | EC50 ([2]; Homo sapiens, SK-BR-3, 72 h): 6040 nM

CO[C@H]1/C=C/CCC[S@@](=O)(NC(=O)OCc2ccnn2C)=NC(=O)c2ccc3c(c2)N(C[C@@H]2CC[C@H]21)C[C@@]1(CCCc2cc(Cl)ccc21)CO3 [Example 78]
IC50 [1]: 0.8 nM | EC50 ([2]; Homo sapiens, SK-BR-3, 72 h): 4070 nM

CO[C@H]1/C=C/CCC[S@@](=O)(NC(=O)NCc2ccncc2)=NC(=O)c2ccc3c(c2)N(C[C@@H]2CC[C@H]21)C[C@@]1(CCCc2cc(Cl)ccc21)CO3 [Example 79]
IC50 [1]: 0.4 nM | EC50 ([2]; Homo sapiens, SK-BR-3, 72 h): 3030 nM

CO[C@H]1/C=C/CCC[S@@](=O)(NC(=O)NCc2cnccn2)=NC(=O)c2ccc3c(c2)N(C[C@@H]2CC[C@H]21)C[C@@]1(CCCc2cc(Cl)ccc21)CO3 [Example 80]
IC50 [1]: 0.3 nM | EC50 ([2]; Homo sapiens, SK-BR-3, 72 h): 1060 nM

CO[C@H]1/C=C/CCC[S@@](=O)(NC(=O)CCC2CC2)=NC(=O)c2ccc3c(c2)N(C[C@@H]2CC[C@H]21)C[C@@]1(CCCc2cc(Cl)ccc21)CO3 [Example 81]
IC50 [1]: 0.5 nM | EC50 ([2]; Homo sapiens, SK-BR-3, 72 h): 612 nM

CO[C@H]1/C=C/CCC[S@@](=O)(NC(=O)CCC2CCCC2)=NC(=O)c2ccc3c(c2)N(C[C@@H]2CC[C@H]21)C[C@@]1(CCCc2cc(Cl)ccc21)CO3 [Example 82]
IC50 [1]: 1.1 nM | EC50 ([2]; Homo sapiens, SK-BR-3, 72 h): 2320 nM

CO[C@H]1/C=C/CCC[S@@](=O)(NC(=O)[C@@H]2C[C@H]2c2ccnn2C)=NC(=O)c2ccc3c(c2)N(C[C@@H]2CC[C@H]21)C[C@@]1(CCCc2cc(Cl)ccc21)CO3 [Example 83]
IC50 [1]: 0.1 nM | EC50 ([2]; 72 hours): 460 nM

CO[C@H]1/C=C/CCC[S@](=O)(NC(=O)[C@@H]2C[C@H]2c2ccnn2C)=NC(=O)c2ccc3c(c2)N(C[C@@H]2CC[C@H]21)C[C@@]1(CCCc2cc(Cl)ccc21)CO3 [Example 84]
IC50 [1]: 0.1 nM | EC50 ([2]; 72 hours): 783 nM
